These results are taken from patent publication US20120270237A9, “METHODS FOR THE IDENTIFICATION OF KINASE INTERACTING MOLECULES AND FOR THE PURIFICATION OF KINASE PROTEINS” (Cellzone AG, priority 2009, published 2012).

As a reminder, the inhibition is the change of the read-out against control, counted positive when it falls.

For the experiment, the target named is T1, MAP3K5 (Homo sapiens, UniProt Q99683).
T1 sequence (Q99683 1-1374): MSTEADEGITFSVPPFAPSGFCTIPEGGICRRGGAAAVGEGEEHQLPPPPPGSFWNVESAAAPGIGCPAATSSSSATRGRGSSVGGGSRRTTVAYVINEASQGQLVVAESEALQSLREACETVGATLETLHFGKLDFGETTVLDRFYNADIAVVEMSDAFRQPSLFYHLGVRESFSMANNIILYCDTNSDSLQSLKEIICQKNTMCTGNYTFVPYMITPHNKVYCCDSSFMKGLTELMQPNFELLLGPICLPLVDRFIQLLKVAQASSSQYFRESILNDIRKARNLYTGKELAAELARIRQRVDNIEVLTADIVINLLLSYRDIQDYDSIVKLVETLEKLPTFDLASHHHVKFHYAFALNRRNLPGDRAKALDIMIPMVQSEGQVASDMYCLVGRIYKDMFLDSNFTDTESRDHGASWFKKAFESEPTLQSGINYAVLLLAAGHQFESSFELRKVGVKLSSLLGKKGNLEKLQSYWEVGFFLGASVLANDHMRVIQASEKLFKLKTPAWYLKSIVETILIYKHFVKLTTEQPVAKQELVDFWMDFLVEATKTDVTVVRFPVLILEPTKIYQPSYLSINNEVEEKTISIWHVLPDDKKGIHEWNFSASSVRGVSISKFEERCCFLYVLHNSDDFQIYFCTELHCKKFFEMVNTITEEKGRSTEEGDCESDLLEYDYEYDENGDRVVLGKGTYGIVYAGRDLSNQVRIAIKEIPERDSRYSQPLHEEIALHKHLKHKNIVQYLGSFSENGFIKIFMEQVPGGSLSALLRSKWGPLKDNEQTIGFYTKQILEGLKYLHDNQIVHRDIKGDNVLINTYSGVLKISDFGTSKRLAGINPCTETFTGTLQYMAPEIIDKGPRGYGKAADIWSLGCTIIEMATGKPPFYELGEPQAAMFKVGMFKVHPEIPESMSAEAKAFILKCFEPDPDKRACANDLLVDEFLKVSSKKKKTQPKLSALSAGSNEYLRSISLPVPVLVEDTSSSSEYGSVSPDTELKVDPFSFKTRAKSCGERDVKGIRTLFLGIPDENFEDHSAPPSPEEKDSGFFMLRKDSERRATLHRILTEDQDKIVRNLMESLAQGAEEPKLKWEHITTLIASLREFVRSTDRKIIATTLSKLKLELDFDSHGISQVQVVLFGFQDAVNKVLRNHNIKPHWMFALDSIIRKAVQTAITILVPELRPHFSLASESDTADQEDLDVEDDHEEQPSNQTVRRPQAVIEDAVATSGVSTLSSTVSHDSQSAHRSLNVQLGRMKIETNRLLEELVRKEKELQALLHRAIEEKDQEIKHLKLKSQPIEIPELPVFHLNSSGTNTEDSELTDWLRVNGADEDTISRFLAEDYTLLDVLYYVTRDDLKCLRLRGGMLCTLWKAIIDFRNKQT
The experiment in a line: Kinobeads competition binding, HL60 cell lysate. The arrangement: endogenous in cells; host or cells: HL60 cell lysate. As to conditions: 10 μM free compound. The method, then:
To one aliquot of cell lysate 10 μM of the free compound (FIG. 3, CZC31326) was added and allowed to bind to proteins in the lysate. Then the affinity matrix with the immobilized compound (Example 1) was added to capture proteins that were not interacting with the previously added free compound. Beads were separated from the lysate and bead bound proteins were eluted in SDS sample buffer and subsequently separated by SDS-Polyacrylamide gel electrophoresis (FIG. 4). Suitable gel bands were cut out and subjected to in-gel proteolytic digestion with trypsin. The second lysate aliquot was processed identically, however no free compound was added (DMSO solvent control). Peptides originating from samples 1 and 2 were labeled with iTRAQ reagents (iTRAQ 114 and iTRAQ 117) and the combined samples were analyzed with a nano-flow liquid chromatography system coupled online to a tandem mass spectrometer (LC-MS/MS) experiment followed by iTRAQ reporter ion quantification in the MS/MS spectra (Ross et al., 2004. Mol. Cell. Proteomics 3(12):1154-1169). Further experimental protocols can be found in WO2006/134056 and a previous publication (Bantscheff et al., 2007. Nature Biotechnology 25, 1035-1044). Sepharose-beads with the immobilized compound (100 μl beads per pull-down experiment) were equilibrated in lysis buffer and incubated with a cell lysate sample containing 50 mg of protein on an end-over-end shaker (Roto Shake Genie, Scientific Industries Inc.) for 2 hours at 4° C. […] The iTRAQ reagents are a set of multiplexed, amine-specific, stable isotope reagents that can label peptides on amino groups in up to four different biological samples enabling simultaneous identification and quantitation of peptides. […] Relative protein quantitation was performed using peak areas of iTRAQ reporter ion signals essentially as described in an earlier publication (Bantscheff et al., 2007. Nature Biotechnology 25, 1035-1044).

`CS(=O)(=O)Nc1ccccc1Nc1nc(Nc2cccc(OCCN)c2)ncc1Cl` [CZC31326, N-(2-(2-(3-(2-aminoethoxy)phenylamino)-5-chloropyrimidin-4-ylamino)phenyl)methanesulfonamide] returned an inhibition at 10 µM of 88.4%.
